# “Also recorded” adds a separate entry of the source.
# Assays:
# MMP-1 mRNA = MMP-1 mRNA accumulation in synovial fibroblasts (real time PCR); assay type: cell-based, human
# Experimental: Methods: The effect of RXR antagonists on the activity of synovial fibroblasts, dependent on their state of activation, i.e. modified by a concomitant stimulation by the inflammatory cytokine Interleukin-1β (IL-1β), was determined. Furthermore, it was determined whether this was accompanied by a modulation in the accumulation of the mRNA encoding catabolic enzyme matrix metalloproteinase-1 (MMP-1), responsible for degradation of human cartilage and consequently joint destruction in man. Adherent synovial fluid cells taken from a patient with RA were used after 5 passages in an in vitro assay for cartilage destruction. The cells incubated in flasks coated with 0.1% (0.1 g/100 ml) human cartilage powder were fixed using Matrigel® (BD Biosciences, Becton, Dickinson & Co., Boston, Mass., USA). The release of sulphated glycosaminoglycan (sGAG) into the culture medium was monitored by a commercial colorimetric test according to a method described by S. Björnsson, see Anal. Biochem. 256, 229-237 (1998) using an alcian blue dot plot analysis, and the accumulation of mRNA encoding MMP-1 was quantified by real time PCR (TaqMan® (Roche Diagnostics, Basle, Switzerland)). […] This was conducted in the presence or absence of IL-1β (100 pg/ml).
# synovial fibroblasts = assay: In vitro cartilage degradation by RA synovial fibroblasts (sGAG release); assay type: cell-based, human; settings: for Release of sGAG: 14 days
# Experimental: Methods: The effect of RXR antagonists on the activity of synovial fibroblasts, dependent on their state of activation, i.e. modified by a concomitant stimulation by the inflammatory cytokine Interleukin-1β (IL-1β), was determined. Furthermore, it was determined whether this was accompanied by a modulation in the accumulation of the mRNA encoding catabolic enzyme matrix metalloproteinase-1 (MMP-1), responsible for degradation of human cartilage and consequently joint destruction in man. Adherent synovial fluid cells taken from a patient with RA were used after 5 passages in an in vitro assay for cartilage destruction. The cells incubated in flasks coated with 0.1% (0.1 g/100 ml) human cartilage powder were fixed using Matrigel® (BD Biosciences, Becton, Dickinson & Co., Boston, Mass., USA). The release of sulphated glycosaminoglycan (sGAG) into the culture medium was monitored by a commercial colorimetric test according to a method described by S. Björnsson, see Anal. Biochem. 256, 229-237 (1998) using an alcian blue dot plot analysis, and the accumulation of mRNA encoding MMP-1 was quantified by real time PCR (TaqMan® (Roche Diagnostics, Basle, Switzerland)).
# The retinoid agonists all-trans retinoic acid and 9-cis retinoic acid, both physiological metabolites of vitamin A, as well as the RXR antagonist compound A, diluted first in ethanol, and then diluted with vehicle or medium to the desired dose/concentration were tested in a time course (0-35 days for the in vitro assay, 0-48 hours for MMP-1 mRNA, see tables 7, 8 and 10) and dose-dependent (10^−7 to 10^−9 M, see tables 5, 6 and 9). This was conducted in the presence or absence of IL-1β (100 pg/ml).
# MMP-9 = MMP-9 protein expression in human PBMC (zymography and ELISA); assay type: cell-based; settings: for MMP-9 Inhibition of expression: vs vehicle control (0%)
# Excerpt: For details on the method see: (A) Effect of RXR antagonists on expression of MMP-9 protein in human peripheral blood mononuclear cells (PBMC) in vitro, Leppert D et al, J Immunol 1995, 154:4379-4389; (B) Leppert D et al, Ann Neurol 1996, 40: 846-852; (C) Leppert D et al, Brain 1998, 121, 2327-2334; (D) Lindberg R et al, Brain 2001, 124: 1743-1753; (E) Gilli F et al, Brain 2004, 127: 1-10, which are incorporated by reference herein, especially with regard to the method.
# Method: Fresh human peripheral blood mononuclear cells (PBMC) were prepared and expanded by stimulation with PHA as described in Leppert D et al, Ann Neurol 1996; 40: 846-852. 1×10^6 cells were pretreated with the RXR antagonist compound A in concentrations of 10^−6 M, 10^−7 M and 10^−8 M for 18 hours. Vehicle was used as control.
# In two different experiments, after pretreatment with compound A, PBMCs were stimulated for 24 hours with Interleukin-2 (IL-2) 50 U/ml in one group, or not stimulated with IL-2 in another group.
# The effect of the mentioned concentrations of compound A was compared with vehicle controls in the IL-2 stimulated and in the non IL-2 stimulated cultures of PBMC. The expression of MMP-9 protein was determined by analysis with zymography and ELISA, see especially references (A) under “Zymographic analysis of conditioned medium (CM)” and (C) under “ELISA (enzyme linked immunosorbent assay) for MMP-9” mentioned above, respectively.
# [1] = 10^−7 M, after 24 hours, vehicle control 1
# [2] = 10^−8 M, 12 hours, control 1.13
# [3] = 10^−8 M, 48 hours, control 1.09
# [4] = 10^−8 M, after 24 hours, vehicle control 1
# [5] = 10^−9 M, after 24 hours, vehicle control 1
# [6] = absence of IL-1β, 10^−7 M, vehicle control 48
# [7] = absence of IL-1β, 10^−8 M, vehicle control 48
# [8] = absence of IL-1β, 10^−8 M, day 7, control 23
# [9] = absence of IL-1β, 10^−8 M, day 14, control 48
# [10] = absence of IL-1β, 10^−8 M, day 21, control 84
# [11] = absence of IL-1β, 10^−8 M, day 28, control 112
# [12] = absence of IL-1β, 10^−8 M, day 35, control 117
# [13] = absence of IL-1β, 10^−9 M, vehicle control 48
# [14] = presence of 100 pg/ml IL-1β, 10^−7 M, vehicle control 173
# [15] = presence of 100 pg/ml IL-1β, 10^−8 M, vehicle control 173
# [16] = presence of 100 pg/ml IL-1β, 10^−8 M, day 7, control 86
# [17] = presence of 100 pg/ml IL-1β, 10^−8 M, day 14, control 173
# [18] = presence of 100 pg/ml IL-1β, 10^−8 M, day 21, control 212
# [19] = presence of 100 pg/ml IL-1β, 10^−8 M, day 28, control 249
# [20] = presence of 100 pg/ml IL-1β, 10^−8 M, day 35, control 271
# [21] = presence of 100 pg/ml IL-1β, 10^−9 M, vehicle control 173
SMILES,MMP-1 mRNA (fold increase of baseline value) (MMP-1 mRNA; [1]) [relative units],"MMP-1 mRNA (fold increase of baseline value) (MMP-1 mRNA; 10^−8 M, 0 hours) [relative units]","MMP-1 mRNA (fold increase of baseline value) (MMP-1 mRNA; 10^−8 M, 2 hours) [relative units]","MMP-1 mRNA (fold increase of baseline value) (MMP-1 mRNA; 10^−8 M, 6 hours) [relative units]",MMP-1 mRNA (fold increase of baseline value) (MMP-1 mRNA; [2]) [relative units],"MMP-1 mRNA (fold increase of baseline value) (MMP-1 mRNA; 10^−8 M, 24 hours) [relative units]",MMP-1 mRNA (fold increase of baseline value) (MMP-1 mRNA; [3]) [relative units],MMP-1 mRNA (fold increase of baseline value) (MMP-1 mRNA; [4]) [relative units],MMP-1 mRNA (fold increase of baseline value) (MMP-1 mRNA; [5]) [relative units],Release of sGAG (synovial fibroblasts; [6]) [µg/mL],Release of sGAG (synovial fibroblasts; [7]) [µg/mL],Cumulative sGAG release (synovial fibroblasts; [8]) [µg/mL],Cumulative sGAG release (synovial fibroblasts; [9]) [µg/mL],Cumulative sGAG release (synovial fibroblasts; [10]) [µg/mL],Cumulative sGAG release (synovial fibroblasts; [11]) [µg/mL],Cumulative sGAG release (synovial fibroblasts; [12]) [µg/mL],Release of sGAG (synovial fibroblasts; [13]) [µg/mL],"Effect on cartilage destruction in vitro (basal activity of synovial fibroblasts) (synovial fibroblasts; absence of IL-1β, in words)",Release of sGAG (synovial fibroblasts; [14]) [µg/mL],Release of sGAG (synovial fibroblasts; [15]) [µg/mL],also measured
"CC1=C(/C=C/C(C)=C\C=C\C(C)=C\C(=O)O)C(C)(C)CCC1 [9-cis RA, 9-cis retinoic acid, reference compound]",2.60,1,0.98,1.31,3.39,3.79,1.47,3.39,1.54,189,107,44,107,206,253,292,64,increased cartilage destruction in vitro in a dose-dependent manner,221,189,"Effect on cartilage destruction in vitro, time course (synovial fibroblasts; presence and absence of IL-1β, in words): markedly increased cartilage destruction; Cumulative sGAG release (synovial fibroblasts; [16]): 68 µg/mL; Cumulative sGAG release (synovial fibroblasts; [17]): 189 µg/mL; Cumulative sGAG release (synovial fibroblasts; [18]): 330 µg/mL; Cumulative sGAG release (synovial fibroblasts; [19]): 407 µg/mL; Cumulative sGAG release (synovial fibroblasts; [20]): 441 µg/mL; Release of sGAG (synovial fibroblasts; [21]): 204 µg/mL"
"CCCCOc1c(\C(C)=C/C=C/C(C)=C/C(=O)O)cc(C(C)(C)C)cc1C(C)(C)C [compound A, (2E,4E,6Z)-7-[2-butoxy-3,5-bis(1,1-dimethylethyl)phenyl]-3-methyl-2,4,6-octatrienoic acid]",0.68,1,1.13,0.81,1.12,0.87,0.83,1.12,1.05,39,57,44,57,57,39,34,46,no effect,41,89,"Effect on production, release and/or activity (expression) of MMP-9 (MMP-9; PBMC, IL-2 stimulated and not stimulated, ELISA and zymography, in words): very strong suppressive effect; also recorded: marked suppressive or inhibitory effect; MMP-9 Protein (total protein in the supernatant) (MMP-9; PBMCs not stimulated with IL-2, 10^−6 M, 18 h pretreatment): 33 ng/mL; MMP-9 Inhibition of expression (MMP-9; PBMCs not stimulated with IL-2, 10^−6 M): 53%; MMP-9 Protein (total protein in the supernatant) (MMP-9; PBMCs not stimulated with IL-2, 10^−7 M, 18 h pretreatment): 43 ng/mL; MMP-9 Inhibition of expression (MMP-9; PBMCs not stimulated with IL-2, 10^−7 M): 39%; MMP-9 Protein (total protein in the supernatant) (MMP-9; PBMCs not stimulated with IL-2, 10^−8 M, 18 h pretreatment): 51 ng/mL; MMP-9 Inhibition of expression (MMP-9; PBMCs not stimulated with IL-2, 10^−8 M): 28%; MMP-9 Protein (total protein in the supernatant) (MMP-9; PBMCs stimulated with IL-2 50 U/ml 24 h, 10^−6 M): 29 ng/mL; MMP-9 Protein (total protein in the supernatant) (MMP-9; PBMCs stimulated with IL-2 50 U/ml 24 h, 10^−7 M): 41 ng/mL; MMP-9 Protein (total protein in the supernatant) (MMP-9; PBMCs stimulated with IL-2 50 U/ml 24 h, 10^−8 M): 40 ng/mL; MMP-9 Inhibition of expression (MMP-9; PBMCs stimulated with IL-2, 10^−6 M): 52%; MMP-9 Inhibition of expression (MMP-9; PBMCs stimulated with IL-2, 10^−7 M): 33%; MMP-9 Inhibition of expression (MMP-9; PBMCs stimulated with IL-2, 10^−8 M): 34%; Cumulative sGAG release (synovial fibroblasts; [16]): 67 µg/mL; Cumulative sGAG release (synovial fibroblasts; [17]): 89 µg/mL; Cumulative sGAG release (synovial fibroblasts; [18]): 89 µg/mL; Cumulative sGAG release (synovial fibroblasts; [19]): 173 µg/mL; Cumulative sGAG release (synovial fibroblasts; [20]): 56 µg/mL; Release of sGAG (synovial fibroblasts; [21]): 144 µg/mL; Effect on IL-1β dependent cartilage destruction (sGAG) (synovial fibroblasts; presence of IL-1β, in words): markedly inhibited"

# — patent US20090016991A1, “Rxr Antagonist Treatment Against Multiple Sclerosis” (priority 2004, published 2009)
